Tests used:
[1] = system: indigenous microorganisms; assay: Contaminants level of sodium bisulfite-soaked aspen chips (plating before inoculation and at harvest); assay type: cell-based, endogenous microorganisms of aspen wood chips; settings: for contaminants level at harvest (in words): fungus-treated chips with sodium bisulfite
Description: Three batches of aspen wood chips were prepared, each batch containing 1800 g dry weight of chips. One batch was soaked in 18 kg of water containing no sodium bisulfite. A second batch was soaked in 18 kg of water containing 28.125 g of sodium bisulfite. A third batch was soaked in 18 kg of water containing 56.250 g of sodium bisulfite. After the chips had soaked, we performed our experiments on 1600 g of chips (dry weight basis). The soaking was done at room temperature for about 1 hour. After soaking, water or sodium bisulfite solution was drained through a mesh. Based on the amount of water or sodium bisulfite solution absorbed by the chips, we calculated that 1600 g dry weight of chips retained about 600 or 1200 μg/ml of sodium bisulfite. Thus, there were three treatments: 1) chips without sodium bisulfite (water only), 2) chips containing 600 μg/ml of sodium bisulfite, and 3) chips containing 1200 μg/ml of sodium bisulfite.
Bioreactors containing soaked chips were left at room temperature for 48 h. U.S. Pat. No. 5,055,159 describes a suitable bioreactor. (U.S. Pat. No. 5,055,159 is hereby incorporated by reference.) Prior to inoculation, chips were pulled out from these bioreactors and plated on potato dextrose and tryptic soya agar plates to measure the contaminants level. These plates were incubated at 27° C. and 65% relative humidity for 24 h.
At harvest, fungus-treated chips with and without sodium bisulfite soaking were plated on potato dextrose and tryptic soya agar plates to determine the contaminants level. These plates were incubated at 27° C. and 65% relative humidity for 72 h. […] High level of sodium bisulfite (1200 μg/ml) caused only 1.7% wood loss, saved 18.4% of electrical energy, improved tear index by 15%, and fiber length by 26% as compared to the control.
We repeated the experiment described above with a four-week incubation. Four batches of aspen wood chips were prepared, each batch containing 3600 g dry weight of chips. One batch was soaked in 36 kg of water containing no sodium bisulfite. Second, third and fourth batches each were soaked in 36 kg of water containing 112.50 g of sodium bisulfite at room temperature for about 1 hour. After soaking, water or sodium bisulfite solution was drained through a mesh. Based on the amount of water or sodium bisulfite solution soaked, we calculated that each batch of 1600 g dry weight of chips retained about 1300 μg/ml of sodium bisulfite. Bioreactors containing soaked chips were left at room temperature for 48 h. The following eight treatments were made:
Prior to inoculation, chips were pulled out from the bioreactors and plated on potato dextrose and tryptic soya agar plates to determine the contaminants level. These plates were incubated at 27° C. and 65% relative humidity for 24 h. […]

[2] = system: Phanerochaete chrysosporium BKM-F-1767; assay: Effect of sodium bisulfite on radial growth and mycelial dry weight of P. chrysosporium; assay type: cell-based
Description: (§1) 2% agar was added to the medium. The medium was autoclaved for 15 min. and the medium was poured into petri dishes. These plates were then inoculated with a plug cut into 8-mm diameter plugs from a petri dish containing a 5-day-old culture of P. chrysosporium or a petri dish containing a 10-day-old culture of another white-rot fungi. P. chrysosporium-inoculated plates were incubated at 39° C. Plates inoculated with other fungi were incubated at 27° C.

[3] = system: C. subvennispora L-6133-sp; assay: Effect of sodium bisulfite on radial growth of white-rot fungi; assay type: cell-based, C. subvermispora; settings: 500 μg/ml
Description: as §1

[4] = system: C. subvennispora FP-104027-T; assay: as above; assay type: cell-based, C. subvermispora; settings: 500 μg/ml
Description: as §1

[5] = system: C. subvennispora FP-105752-sp; assay: as above; assay type: cell-based, C. subvermispora; settings: 500 μg/ml
Description: as §1

[6] = system: C. subvennispora FP-90031-sp; assay: as above; assay type: cell-based, C. subvermispora; settings: 500 μg/ml
Description: as §1

[7] = system: C. subvennispora CZ-3; assay: as above; assay type: cell-based, C. subvermispora; settings: 500 μg/ml
Description: as §1

[8] = system: C. subvennispora L-14807-sp; assay: as above; assay type: cell-based, C. subvermispora; settings: 500 μg/ml
Description: as §1

[9] = system: C. subvennispora L-15225-sp; assay: as above; assay type: cell-based, C. subvermispora; settings: 500 μg/ml
Description: as §1

[10] = system: P. tremellosa PRL-2845; assay: as above; assay type: cell-based; settings: 500 μg/ml
Description: as §1

[11] = system: P. subserialis RLG-6074-sp; assay: as above; assay type: cell-based; settings: 500 μg/ml
Description: as §1

[12] = system: H. setulosa FP-106976-sp; assay: as above; assay type: cell-based; settings: 500 μg/ml
Description: as §1

[13] = system: P. brevispora 7030-sp; assay: as above; assay type: cell-based; settings: 500 μg/ml
Description: as §1

[14] = system: white-rot fungi; assay: Effect of sodium bisulfite on radial growth of white-rot fungi (summary); assay type: cell-based, white-rot fungi listed in Table 7; settings: 500 μg/ml, 72 and 96 h
Description: as §1

## O=S([O-])O.[Na+] [Sodium Bisulfite]
[1]; 1200 μg/ml, prior to inoculation, 48 h after soaking, 2-week experiment
  endogenous microorganisms on chips (in words): no endogenous microorganisms
[1]; 1300 μg/ml, 4-week experiment
  inhibition of microorganisms prior to inoculation (in words): completely inhibited microorganisms
[1]; 2 weeks
  contaminants level at harvest (in words): almost no contamination
[1]; 4 weeks
  contaminants level at harvest (in words): almost no contamination
[2]; 100 μg/ml
  Mycelial Dry Weight 36 ± SD: 21 ± 3 mg
  Radial Growth 24 h ± SD: 4.30 ± .26 cm
  Radial Growth 36h ± SD: 7.52 ± .27 cm
[2]; 250 μg/ml
  Mycelial Dry Weight 36 ± SD: 39 ± 8 mg
  Radial Growth 24 h ± SD: 5.16 ± .28 cm
  Radial Growth 36h ± SD: 8.62 ± .20 cm
[2]; 500 μg/ml
  Mycelial Dry Weight 36 ± SD: 36 ± 6 mg
  Radial Growth 24 h ± SD: 5.07 ± .25 cm
  Radial Growth 36h ± SD: 8.68 ± .09 cm
[2]; 1000 μg/ml
  Mycelial Dry Weight 36 ± SD: 10 ± 2 mg
  Radial Growth 24 h ± SD: 1.15 ± .22 cm
  Radial Growth 36h ± SD: 2.88 ± .42 cm
[2]; 250 or 500 μg/ml
  dry weight of the fungus (in words): increased
[2]; 250 or 500 μg/ml, 24 and 36 h
  radial growth (in words): increased the radial growth of P. chrysosporium
[2]; summary statement
  growth of white-rot fungi such as P. chrysosporium (in words): promoted the growth of white-rot fungi
[3]; 72 h
  Radial growth 72h ± SD: 2.37 ± .25 cm
[3]; 96 h
  Radial growth 96h ± SD: 4.80 ± .20 cm
[4]; 72 h
  Radial growth 72h ± SD: 3.63 ± .23 cm
[4]; 96 h
  Radial growth 96h ± SD: 6.07 ± .46 cm
[5]; 72 h
  Radial growth 72h ± SD: 2.13 ± .06 cm
[5]; 96 h
  Radial growth 96h ± SD: 4.00 ± 00 cm
[6]; 72 h
  Radial growth 72h ± SD: 3.20 ± .20 cm
[6]; 96 h
  Radial growth 96h ± SD: 5.77 ± .31 cm
[7]; 72 h
  Radial growth 72h ± SD: 2.37 ± .12 cm
[7]; 96 h
  Radial growth 96h ± SD: 4.37 ± .15 cm
[8]; 72 h
  Radial growth 72h ± SD: 2.60 ± .30 cm
[8]; 96 h
  Radial growth 96h ± SD: 5.07 ± .31 cm
[9]; 72 h
  Radial growth 72h ± SD: 1.63 ± .40 cm
[9]; 96 h
  Radial growth 96h ± SD: 4.20 ± .72 cm
[10]; 72 h
  Radial growth 72h ± SD: 1.73 ± .06 cm
[10]; 96 h
  Radial growth 96h ± SD: 2.97 ± .12 cm
[11]; 72 h
  Radial growth 72h ± SD: 3.93 ± .42 cm
[11]; 96 h
  Radial growth 96h ± SD: 7.07 ± .29 cm
[12]; 72 h
  Radial growth 72h ± SD: 1.97 ± .06 cm
[12]; 96 h
  Radial growth 96h ± SD: 3.77 ± .25 cm
[13]; 72 h
  Radial growth 72h ± SD: 2.23 ± .06 cm
[13]; 96 h
  Radial growth 96h ± SD: 4.07 ± .38 cm
[14]
  radial growth (in words): increased the radial growth

From US5460697A, “Method of pulping wood chips with a fungi using sulfite salt-treated wood chips” (priority 1994, dated 1995)
